The term IC50 denotes the concentration that gives 50% inhibition. The low end stands for higher potency, the high end for lower potency.

In one test the target is IDH1 R132H enzyme (Homo sapiens (Human), UniProt O75874, R132H). Kind of test: Mutant IDH1 R132H biochemical assay. Further: 1.5 nM enzyme. The following applies: NADPH consumption, luminescent readout, 250 μM α-KG, 1 μM NADPH, 32° C., 30 minutes, test range 0.002-10 μM. The method, then: mIDH1 catalyzes the NADPH-dependent reduction of alpha-ketoglutarate (α-KG) to (2R)-2-hydroxyglutarate (2-HG). NADPH consumption was measured by luminescent readout.
Chain of IDH1 R132H enzyme (O75874 whole entry R132H): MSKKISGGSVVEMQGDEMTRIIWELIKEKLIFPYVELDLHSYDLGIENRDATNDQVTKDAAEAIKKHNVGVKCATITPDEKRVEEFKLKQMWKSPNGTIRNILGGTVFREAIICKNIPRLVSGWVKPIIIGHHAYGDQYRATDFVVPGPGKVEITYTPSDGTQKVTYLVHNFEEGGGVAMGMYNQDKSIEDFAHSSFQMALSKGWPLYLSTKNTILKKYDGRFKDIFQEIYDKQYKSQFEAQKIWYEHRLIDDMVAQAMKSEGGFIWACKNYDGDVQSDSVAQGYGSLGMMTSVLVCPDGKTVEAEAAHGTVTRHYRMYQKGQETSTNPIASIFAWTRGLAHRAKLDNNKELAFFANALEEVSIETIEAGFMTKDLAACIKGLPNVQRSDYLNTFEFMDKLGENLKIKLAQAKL
The biochemical reactions were performed at 32° C. in 384-well plates using a reaction volume of 41 μl and the following assay buffer conditions: 50 mM Tris pH 7.5, 100 mM NaCl, 20 mM MgCl2, 0.05% BSA, 0.01% Brij, 1 μM NADPH, and 250 μM α-KG. […] Test compounds were used in a concentration range between 0.002 and 10 μM. The final DMSO concentration was 2.4%.
The reaction was incubated for 30 minutes, then 40 μl of detection mix (0.75 μg/ml Luciferase, 0.02 U/ml Oxidoreductase, 4 μg/ml FMN, 2 μl/ml Decanal/Ethanol, 50 mM Tris pH 7.5, 0.5% Glycerin, 0.01% Tween-20, 0.05% BSA) was added. Luminescence was measured on a luminescent reader (10 seconds measuring time, 1 second integration period, 30% sensitivity). The decrease in luminescence is proportional to mIDH1 activity. IC50 values are determined by interpolation from plots of relative luminescence versus inhibitor concentration.

Test [1] relates to LN229 R132H cells overexpressing mutated isocitrate dehydrogenase (mIDH). Kind of test: Mutant IDH1 cellular assay (2-HG levels in medium). Type of test: cell-based. The following applies: Homo sapiens, LN-229, 24 h, 2-HG in medium of LN229 R132H cells, 24 hours incubation, fluorescence readout. The method, then:
Mutant IDH1 Cellular Assay
Levels of (2R)-2-hydroxyglutarate (2HG) were measured in medium of a cell line with overexpression of mutated isocitrate dehydrogenase (mIDH) protein. mIDH catalyzes the NADPH-dependent reduction of alpha-ketoglutarate to 2-HG. Cells (LN229 R132H, Mohrenz et al., Apoptosis (2013) 18:1416-1425) were grown in DMEM containing 10% FCS. They were harvested by trypsin and seeded into 96-well plates. Cells were incubated overnight at 37° C. in 5% CO2. The next day test compounds were added to each cell well. The final concentration of DMSO was 0.1% and DMSO controls were included. The plates were then placed in an incubator for 24 hours.
2-HG was measured according to Balss et al. (Acta Neuropathol (2012) 124: 883-891). Briefly, HClO4 was added to each well and the plates were centrifuged. Aliquots are removed and incubated with hydroxyglutarate dehydrogenase (HGDH), diaphorase, NAD+, and resazurin. The conversion of resazurin to resorufin was detected by fluorescence spectroscopy at Ex 540 nm Em 600 nm. The increase in fluorescence is proportional to 2-HG production. IC50 values are determined by interpolation from plots of relative fluorescence vs inhibitor concentration.

With `C[C@@H]1C[C@H](n2c(Nc3ccc(OC(F)(F)F)cc3)nc3ccc(C(=O)Nc4ccc(F)cc4)cc32)CC(C)(C)C1` (racemic) [Example 2-22, (±) N-(4-fluorophenyl)-2-{[4-(trifluoromethoxy)phenyl]amino}-1-[(cis)-3,3,5-trimethylcyclohexyl]-1H-benzimidazole-6-carboxamide], the half-maximal inhibitory concentration (IC50) on IDH1 R132H enzyme was no less than 10 µM.

Turning to `C[C@@H]1C[C@H](n2c(Nc3ccc(OC(F)(F)F)cc3)nc3ccc(C(=O)NCc4ccc(F)cc4)cc32)CC(C)(C)C1` (racemic) [Example 2-21, (±) N-(4-fluorobenzyl)-2-{[4-(trifluoromethoxy)phenyl]amino}-1-[(cis)-3,3,5-trimethylcyclohexyl]-1H-benzimidazole-6-carboxamide], the IC50 against IDH1 R132H enzyme was no less than 10 µM.

In turn, `C[C@@H]1C[C@H](n2c(Nc3ccc(OC(F)(F)F)cc3)nc3ccc(C(=O)NS(C)(=O)=O)cc32)CC(C)(C)C1` (racemic) [Example 2-19, (±) N-(methylsulfonyl)-2-{[4-(trifluoromethoxy)phenyl]amino}-1-[(cis)-3,3,5-trimethylcyclohexyl]-1H-benzimidazole-6-carboxamide] returned a 50% inhibitory concentration (IC50) against IDH1 R132H enzyme of no less than 10 µM.

Regarding `C[C@@H]1C[C@H](n2c(Nc3ccc(OC(F)(F)F)cc3)nc3ccc(C(=O)N4CCOCC4)cc32)CC(C)(C)C1` (single isomer, unassigned; enantiomer b) [Example 2-16-2, morpholin-4-yl(2-{[4-(trifluoromethoxy)phenyl]amino}-1-[(cis)-3,3,5-trimeethylcyclohexyl]-1H-benzimidazol-6-yl)methanone, enantiomer B], the concentration for half-maximal inhibition (IC50) in test [1] came out at 0.4 µM.

On to `COC(=O)CCNC(=O)c1ccc2nc(Nc3ccc(OC(F)(F)F)cc3)n([C@H]3C[C@@H](C)CC(C)(C)C3)c2c1` (racemic) [Example 2-14, (±) methyl N-[(2-{[4-(trifluoromethoxy)phenyl]amino}-1-[(cis)-3,3,5-trimethylcyclohexyl]-1H-benzimidazol-6-yl)carbonyl]-β-alaninate], for which the IC50 against IDH1 R132H enzyme was no less than 10 µM.

The compound `COC(=O)c1ccc2nc(Nc3ccc(OC(F)(F)F)cc3)n([C@H]3C[C@@H](C)CC(C)(C)C3)c2c1` (single isomer, unassigned; enantiomer b) [Example 2-1-2, methyl 2-{[4-(trifluoromethoxy)phenyl]amino}-1-[(cis)-3,3,5-trimethylcyclohexyl]-1H-benzimidazole-6-carboxylate, enantiomer B] gave a 50% inhibitory concentration (IC50) in test [1] of 5.7 µM.

In the case of `C[C@H]1C[C@H](n2c(Nc3ccc(OC(F)(F)F)cc3)nc3ccc(C(=O)N(C)C)cc32)CC(C)(C)C1` (racemic) [Example 2-25, (±) N,N-dimethyl-2-{[4-(trifluoromethoxy)phenyl]amino}-1-[(trans)-3,3,5-trimethylcyclohexyl]-1H-benzimidazole-6-carboxamide], on IDH1 R132H enzyme, 0.47 µM corresponded to half-maximal inhibition (IC50).

Regarding `C[C@@H]1C[C@H](n2c(Nc3ccc(OC(F)(F)F)cc3)nc3ccc(C(=O)NC4CC4)cc32)CC(C)(C)C1` (racemic) [Example 2-23, (±) N-cyclopropyl-2-{[4-(trifluoromethoxy)phenyl]amino}-1-[(cis)-3,3,5-trimethylcyclohexyl]-1H-benzimidazole-6-carboxamide], the IC50 against IDH1 R132H enzyme was no less than 10 µM.

Take `C[C@@H]1C[C@H](n2c(Nc3ccc(OC(F)(F)F)cc3)nc3ccc(C(=O)NCCC(=O)O)cc32)CC(C)(C)C1` (racemic) [Example 2-15, (±) N-[(2-{[4-(trifluoromethoxy)phenyl]amino}-1-[(cis)-3,3,5-trimethylcyclohexyl]-1H-benzimidazol-6-yl)carbonyl]-β-alanine]: the IC50 at IDH1 R132H enzyme is no less than 10 µM.

Consider `CCOC(=O)CCN(C)C(=O)c1ccc2nc(Nc3ccc(OC(F)(F)F)cc3)n([C@H]3C[C@@H](C)CC(C)(C)C3)c2c1` (racemic) [Example 2-24, (±) ethyl N-methyl-N-[(2-{[4-(trifluoromethoxy)phenyl]amino}-1-[(cis)-3,3,5-trimethylcyclohexyl]-1H-benzimidazol-6-yl)carbonyl]-β-alaninate], for which the IC50 at IDH1 R132H enzyme is no less than 10 µM.

As to `C[C@@H]1C[C@H](n2c(Nc3ccc(OC(F)(F)F)cc3)nc3ccc(C(=O)NCCO)cc32)CC(C)(C)C1` (racemic) [Example 2-13, (±) N-(2-hydroxyethyl)-2-{[4-(trifluoromethoxy)phenyl]amino}-1-[(cis)-3,3,5-trimethylcyclohexyl]-1H-benzimidazole-6-carboxamide], the IC50 against IDH1 R132H enzyme was 2.2 µM.

Consider `C[C@@H]1C[C@H](n2c(Nc3ccc(OC(F)(F)F)cc3)nc3ccc(C(=O)NC4CC4)cc32)CC(C)(C)C1` (single isomer, unassigned; enantiomer a) [Example 2-23-1, N-cyclopropyl-2-{[4-(trifluoromethoxy)phenyl]amino}-1-[(cis)-3,3,5-trimethylcyclohexyl]-1H-benzimidazole-6-carboxamide, enantiomer A], for which the IC50 on IDH1 R132H enzyme is no less than 10 µM.

`COC(=O)CNC(=O)c1ccc2nc(Nc3ccc(OC(F)(F)F)cc3)n([C@H]3C[C@@H](C)CC(C)(C)C3)c2c1` (racemic) [Example 2-10, (±) methyl N-[(2-{[4-(trifluoromethoxy)phenyl]amino}-1-[(cis)-3,3,5-trimethylcyclohexyl]-1H-benzimidazol-6-yl)carbonyl]glycinate]: half-maximal inhibition on IDH1 R132H enzyme (IC50) required 6.6 µM.

With `C[C@@H]1C[C@H](n2c(Nc3ccc(OC(F)(F)F)cc3)nc3ccc(C(=O)N(C)CC(=O)O)cc32)CC(C)(C)C1` (racemic) [Example 2-11, (±) N-methyl-N-[(2-{[4-(trifluoromethoxy)phenyl]amino}-1-[(cis)-3,3,5-trimethylcyclohexyl]-1H-benzimidazol-6-yl)carbonyl]glycine], at IDH1 R132H enzyme, inhibition was half-maximal at 7.6 µM (IC50).

As for `CNC(=O)c1ccc2nc(Nc3ccc(OC(F)(F)F)cc3)n([C@H]3C[C@@H](C)CC(C)(C)C3)c2c1` (racemic) [Example 2-8, (±) N-methyl-2-{[4-(trifluoromethoxy)phenyl]amino}-1-[(cis)-3,3,5-trimethylcyclohexyl]-1H-benzimidazole-6-carboxamide], at IDH1 R132H enzyme, the IC50 came out at 0.43 µM.

`CNC(=O)c1ccc2nc(Nc3ccc(OC(F)(F)F)cc3)n([C@H]3C[C@@H](C)CC(C)(C)C3)c2c1` (single isomer, unassigned; enantiomer b) [Example 2-8-2, N-methyl-2-{[4-(trifluoromethoxy)phenyl]amino}-1-[(cis)-3,3,5-trimethylcyclohexyl]-1H-benzimidazole-6-carboxamide, enantiomer B]: on IDH1 R132H enzyme, the IC50 worked out at 1.2 µM.

For the compound `COC(=O)c1ccc2nc(Nc3ccc(OC(F)(F)F)cc3)n([C@H]3C[C@@H](C)CC(C)(C)C3)c2c1` (racemic) [Example 2-1, (±) methyl 2-{[4-(trifluoromethoxy)phenyl]amino}-1-[(cis)-3,3,5-trimethylcyclohexyl]-1H-benzimidazole-6-carboxylate], in test [1], it took 3.2 µM to reach half-maximal inhibition (IC50).

Compound `CNC(=O)c1ccc2nc(Nc3ccc(OC(F)(F)F)cc3)n([C@H]3C[C@@H](C)CC(C)(C)C3)c2c1` (single isomer, unassigned; enantiomer a) [Example 2-8-1, N-methyl-2-{[4-(trifluoromethoxy)phenyl]amino}-1-[(cis)-3,3,5-trimethylcyclohexyl]-1H-benzimidazole-6-carboxamide, enantiomer A] returned an IC50 on IDH1 R132H enzyme of 0.92 µM.

`C[C@@H]1C[C@H](n2c(Nc3ccc(OC(F)(F)F)cc3)nc3ccc(C(=O)NC4CCCC4)cc32)CC(C)(C)C1` (racemic) [Example 2-5, (±) N-cyclopentyl-2-{[4-(trifluoromethoxy)phenyl]amino}-1-[(cis)-3,3,5-trimethylcyclohexyl]-1H-benzimidazole-6-carboxamide] came in with an IC50 against IDH1 R132H enzyme of no less than 10 µM.

For `C[C@@H]1C[C@H](n2c(Nc3ccc(OC(F)(F)F)cc3)nc3ccc(C(=O)NC4CC4)cc32)CC(C)(C)C1` (single isomer, unassigned; enantiomer b) [Example 2-23-2, N-cyclopropyl-2-{[4-(trifluoromethoxy)phenyl]amino}-1-[(cis)-3,3,5-trimethylcyclohexyl]-1H-benzimidazole-6-carboxamide, enantiomer B], at IDH1 R132H enzyme, the 50% inhibitory concentration (IC50) was no less than 10 µM.
